# From publication PMC6586154 (Clinical Pharmacology in Drug Development, 2018)
# Columns and labels:
# [1] = Ertugliflozin plasma PK summarized across all 4 DDI studies; type: in vivo; details: human, oral, 15 mg
# [2] = Ertugliflozin-sitagliptin drug-drug interaction study, plasma pharmacokinetics; type: in vivo, human; details: for AUC(0-inf): po
# [3] = cited from earlier work
# [4] = Ertugliflozin-metformin drug-drug interaction study, plasma pharmacokinetics
# [5] = Safety and tolerability across all 4 DDI studies; type: in vivo, human; details: single dose ertugliflozin 15 mg alone or in combination with sitagliptin, metformin, glimepiride, or simvastatin; healthy subjects
# OCT1 = details: cited from earlier work
# OATP2B1 = details: cited from earlier work
# OAT3 [6] = details: in vitro studies; cited from earlier work
# [7] = Ertugliflozin-simvastatin drug-drug interaction study, plasma pharmacokinetics
# OAT1 = details: cited from earlier work
# P‐glycoprotein = details: at clinically relevant concentrations; cited from earlier work
# [8] = tested on: breast cancer resistance protein; details: at clinically relevant concentrations; cited from earlier work
# OAT3 [9] = details: cited from earlier work
# OATP1B3 = details: cited from earlier work
# [10] = Ertugliflozin-glimepiride drug-drug interaction study, plasma pharmacokinetics; type: in vivo, human; details: for AUC(0-t) / Cmax / Tmax / half-life: oral; for GMR (90% CI) Cmax, analyte Glimepiride: Test Ertugliflozin + Glimepiride / Reference Glimepiride
# OATP1B1 = details: cited from earlier work
# OCT2 [11] = details: cited from earlier work
# OCT2 [12] = details: in vitro studies; cited from earlier work
# [13] = both, human, plasma, oral, 15 mg
# [14] = simvastatin 40 mg coadministered with ertugliflozin 15 mg vs alone
smiles,measurement,setting,value
CCOc1ccc(Cc2cc([C@]34OC[C@](CO)(O3)[C@@H](O)[C@H](O)[C@H]4O)ccc2Cl)cc1 [Ertugliflozin],Tmax,[1],1 to 3 h
same,half-life,[1],10.6 to 12.6 h
same,"GMR (90% CI) Cmax, analyte Ertugliflozin",[2]; Test Ertugliflozin + Sitagliptin / Reference Ertugliflozin,"98.2 (91.2, 105.7) %"
same,AUC(0-t),"[2]; human, plasma, oral, 15 mg",1430 ng·h/mL
same,Cmax,"[2]; human, plasma, oral, 15 mg",270 ng/mL
same,Tmax,"[2]; human, plasma, oral, 15 mg",1 h
same,AUC(0-inf),"[2]; human, plasma, 15 mg",1460 ng·h/mL
same,Absolute (oral) bioavailability,[3],approximately 100%
same,Renal excretion of unchanged ertugliflozin,"[3]; human, in vivo",1.5 % of the administered dose
same,Contribution of glucuronidation to metabolic clearance,[3]; major metabolic pathway,86%
same,Contribution of oxidative metabolism,[3]; minor pathway,12%
same,"GMR (90% CI) Cmax, analyte Ertugliflozin",[4]; Test Ertugliflozin + Metformin / Reference Ertugliflozin,"97.1 (88.8, 106.3) %"
same,AUC(0-t),[4]; [13],1380 ng·h/mL
same,Cmax,[4]; [13],279 ng/mL
same,Tmax,[4]; [13],1.02 h
same,half-life,[4]; [13],11.8 ± 2.34 h
same,Tolerability,[5],well tolerated
same,Substrate of OCT1 uptake transporter,OCT1,not a substrate
same,Substrate of OATP2B1 uptake transporter,OATP2B1,not a substrate
same,Inhibition of OAT3 transporter,OAT3 [6],weak inhibitor
same,"GMR (90% CI) Cmax, analyte Ertugliflozin",[7]; Test Ertugliflozin + Simvastatin / Reference Ertugliflozin,"105.2 (98.3, 112.5) %"
same,AUC(0-t),"[7]; both, human, in vivo, 15 mg",1380 ng·h/mL
same,Cmax,"[7]; both, human, in vivo, 15 mg",273 ng/mL
same,half-life,"[7]; both, human, in vivo, 15 mg",12.3 ± 3.07 h
same,Substrate of OAT1 uptake transporter,OAT1,not a substrate
same,Substrate of P‐glycoprotein efflux transporter,P‐glycoprotein,substrate
same,Substrate of breast cancer resistance protein efflux transporter,[8],substrate
same,Substrate of OAT3 uptake transporter,OAT3 [9],not a substrate
same,Substrate of OATP1B3 uptake transporter,OATP1B3,not a substrate
same,"GMR (90% CI) Cmax, analyte Ertugliflozin",[10]; Test Ertugliflozin + Glimepiride / Reference Ertugliflozin,"98.2 (92.2, 104.6) %"
same,AUC(0-t),"[10]; both, human, plasma, 15 mg",1230 ng·h/mL
same,Cmax,"[10]; both, human, plasma, 15 mg",146 ng/mL
same,Tmax,"[10]; both, human, plasma, 15 mg",2 h
same,half-life,"[10]; both, human, plasma, 15 mg",10.6 ± 2.44 h
same,Substrate of OATP1B1 uptake transporter,OATP1B1,not a substrate
same,Substrate of OCT2 uptake transporter,OCT2 [11],not a substrate
same,Inhibition of OCT2 transporter,OCT2 [12],weak inhibitor
"CCC(C)(C)C(=O)O[C@H]1C[C@@H](C)C=C2C=C[C@H](C)[C@H](CC[C@@H](O)C[C@@H](O)CC(=O)O)[C@H]21 [Simvastatin Acid, simvastatin acid]",Increase in geometric mean AUCinf of simvastatin acid,[7]; [14],30%
same,Increase in geometric mean Cmax of simvastatin acid,[7]; [14],16%
"CCC(C)(C)C(=O)O[C@H]1C[C@@H](C)C=C2C=C[C@H](C)[C@H](CC[C@@H]3C[C@@H](O)CC(=O)O3)[C@H]21 [Simvastatin, reference compound]",Increase in geometric mean AUCinf of simvastatin,[7]; [14],24%
same,Increase in geometric mean Cmax of simvastatin,[7]; [14],19%
CCC1=C(C)CN(C(=O)NCCc2ccc(S(=O)(=O)NC(=O)N[C@H]3CC[C@H](C)CC3)cc2)C1=O [Glimepiride],"GMR (90% CI) Cmax, analyte Glimepiride",[10],"97.4 (71.1, 133.5) %"
same,"GMR (90% CI) Cmax, analyte Glimepiride",[10]; listed as glimepiride,97.4%
same,Tmax,"[10]; both, human, plasma",1 to 12 h
same,AUC(0-t),"[10]; both, human, plasma, 1 mg",218 ng·h/mL
same,Cmax,"[10]; both, human, plasma, 1 mg",34.4 ng/mL
same,half-life,"[10]; both, human, plasma, 1 mg",5.89 ± 2.79 h
same,AUC(0-inf),"[10]; both, human, plasma, po, 1 mg",249 ng·h/mL
same,Intrasubject variability for Cmax of glimepiride,[10]; glimepiride 1 mg alone or with ertugliflozin 15 mg,53.5%
"N[C@@H](CC(=O)N1CCn2c(nnc2C(F)(F)F)C1)Cc1cc(F)c(F)cc1F [Sitagliptin, reference compound]","GMR (90% CI) Cmax, analyte Sitagliptin",[2]; Test Ertugliflozin + Sitagliptin / Reference Sitagliptin,"101.7 (91.7, 112.8) %"
same,half-life,"[2]; both, human, plasma, oral, 100 mg",11 ± 2.89 h
same,AUC(0-t),"[2]; human, plasma, oral, 100 mg",6.95 µM·h
same,Cmax,"[2]; human, plasma, oral, 100 mg",814 nM
same,AUC(0-inf),"[2]; human, plasma, 100 mg",7.02 µM·h
"CN(C)C(=N)N=C(N)N [Metformin, reference compound]","GMR (90% CI) Cmax, analyte Metformin",[4]; Test Ertugliflozin + Metformin / Reference Metformin,"94.0 (82.9, 106.6) %"
same,Metformin Tmax,"[4]; plasma, Metformin 1000 mg alone (N = 18), median (range)",2.00 (0.50–4.00) h
